Earlier results on one molecule are cited in patent US20220160797A1 (North Carolina State University, priority 2019, published 2022).

The data set has as its system L. acidophilus NCFM. Particulars: grown on esculin compared to lactose.

`O=c1ccc2cc(O[C@@H]3O[C@H](CO)[C@@H](O)[C@H](O)[C@H]3O)c(O)cc2o1` [esculin]: the “up-regulation of gene lba0753” value is given as 2.3 log2.
